Measurements published in patent US10294202B2, “Pyrrolidinones as herbicides” (FMC Corporation, priority 2013, dated 2019).

Assays:
[1] = test system: blackgrass; test: Test C pre-/postemergence herbicide test; assay type: in vivo, Alopecurus myosuroides
Outline: (§1)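 Greenhouse pots; formulation = non-phytotoxic solvent mix + surfactant. PRE onto seeds in loam:sand; POST at 1–4 leaves (2–18 cm) in peat moss/vermiculite medium. Read-out: visual % control vs untreated, day 13–15.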

[2] = test system: rice; test: Test B flooded paddy test; assay type: in vivo, Oryza sativa; details: 500 g ai/ha, Flood; scale of 0 to 100 where 0 is no effect and 100 is complete control
Outline: (§2)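 First, plants reach the 2-leaf stage; next, pots are flooded to 3 cm and compound is delivered into the water; finally, after 13 to 15 greenhouse days at constant depth, injury is graded visually from 0 to 100 against controls.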

[3] = test system: soybean; test: Test C pre-/postemergence herbicide test; assay type: in vivo, Glycine max
Outline: as §1

[4] = test system: crabgrass, large; test: Test C pre-/postemergence herbicide test; assay type: in vivo, Digitaria sanguinalis
Outline: as §1

[5] = test system: ducksalad; test: Test B flooded paddy test; assay type: in vivo, Heteranthera limosa; details: 500 g ai/ha, Flood; scale of 0 to 100 where 0 is no effect and 100 is complete control
Outline: as §2

[6] = test system: ryegrass, Italian; test: Test C pre-/postemergence herbicide test; assay type: in vivo, Lolium multiflorum
Outline: as §1

[7] = test system: corn; test: Test A pre-/postemergence herbicide test; assay type: in vivo, Zea mays; details: Postemergence
Outline: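 Greenhouse pot test with pre- and postemergence application of surfactant-containing solvent formulations. Postemergence plants were 2–10 cm, one- to two-leaf stage. Response scored visually after ~10 days, 0 (no effect) to 100 (complete control).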

[8] = test system: barnyardgrass; test: Test B flooded paddy test; assay type: in vivo, Echinochloa crus-galli; details: 500 g ai/ha, Flood; scale of 0 to 100 where 0 is no effect and 100 is complete control
Outline: as §2

[9] = test system: waterhemp; test: Test C pre-/postemergence herbicide test; assay type: in vivo, Amaranthus rudis
Outline: as §1

[10] = test system: velvetleaf; test: Test C pre-/postemergence herbicide test; assay type: in vivo, Abutilon theophrasti
Outline: as §1

[11] = test system: sedge, umbrella; test: Test B flooded paddy test; assay type: in vivo, Cyperus difformis; details: 500 g ai/ha, Flood; scale of 0 to 100 where 0 is no effect and 100 is complete control
Outline: as §2

[12] = test system: oilseed rape; test: Test C pre-/postemergence herbicide test; assay type: in vivo, Brassica napus
Outline: as §1

[13] = Postemergence, 31 g ai/ha, scale 0 to 100 (0 no effect, 100 complete control)
[14] = Postemergence, 62 g ai/ha, scale 0 (no effect) to 100 (complete control)
[15] = Postemergence, 125 g ai/ha, scale 0 to 100 (0 no effect, 100 complete control)
[16] = Postemergence, 250 g ai/ha, scale 0 to 100 (0 no effect, 100 complete control)
[17] = Preemergence, 31 g ai/ha, scale 0 to 100, 0 is no effect and 100 is complete control
[18] = Preemergence, 62 g ai/ha, scale 0 to 100 (0 no effect, 100 complete control)
[19] = Preemergence, 125 g ai/ha, scale 0 to 100 (0 no effect, 100 complete control)

Structure (SMILES): CN1CC(c2ccc(F)c(F)c2)C(C(=O)Nc2ccccc2F)C1=O (centres unmarked) [Compound 302]
- Plant response rating, Blackgrass [1, 13]: 0
- Plant response rating, Blackgrass [1, 14]: 0
- Plant response rating, Blackgrass [1, 15]: 0
- Plant response rating, Blackgrass [1, 16]: 5
- Blackgrass plant response rating [1, 17]: 0
- Blackgrass plant response rating [1, 18]: 30
- Plant response rating, Blackgrass [1, 19]: 60
- Plant response rating (scale of 0 to 100), Blackgrass ([1]; Preemergence, 250 g ai/ha): 85
- Plant response rating, Rice [2]: 0
- Plant response rating, Soybean [3, 13]: 0
- Plant response rating, Soybean [3, 14]: 0
- Plant response rating, Soybean [3, 15]: 0
- Plant response rating, Soybean [3, 16]: 65
- Soybean plant response rating [3, 17]: 0
- Soybean plant response rating [3, 18]: 30
- Plant response rating, Soybean [3, 19]: 0
- Plant response rating (scale of 0 to 100), Soybean ([3]; Preemergence, 250 g ai/ha): 0
- Plant response rating, Crabgrass, Large [4, 13]: 0
- Plant response rating, Crabgrass, Large [4, 14]: 50
- Plant response rating, Crabgrass, Large [4, 15]: 70
- Plant response rating, Crabgrass, Large [4, 16]: 85
- Crabgrass, Large plant response rating [4, 17]: 95
- Crabgrass, Large plant response rating [4, 18]: 98
- Plant response rating, Crabgrass, Large [4, 19]: 100
- Plant response rating (scale of 0 to 100), Crabgrass, Large ([4]; Preemergence, 250 g ai/ha): 100
- Plant response rating, Ducksalad [5]: 98
- Plant response rating, Ryegrass, Italian [6, 13]: 0
- Plant response rating, Ryegrass, Italian [6, 14]: 0
- Plant response rating, Ryegrass, Italian [6, 15]: 0
- Plant response rating, Ryegrass, Italian [6, 16]: 0
- Ryegrass, Italian plant response rating [6, 17]: 0
- Ryegrass, Italian plant response rating [6, 18]: 0
- Plant response rating, Ryegrass, Italian [6, 19]: 5
- Plant response rating (scale of 0 to 100), Ryegrass, Italian ([6]; Preemergence, 250 g ai/ha): 40
- Plant response rating, Corn ([7]; 125 g ai/ha, visual rating on 0 to 100 scale (0 no effect, 100 complete control), approx. 10 days): 0
- Plant response rating, Corn ([7]; 500 g ai/ha, 0 to 100 scale (0 no effect, 100 complete control)): 40
- Plant response rating, Barnyardgrass [8]: 80
- Plant response rating, Waterhemp [9, 13]: 10
- Plant response rating, Waterhemp [9, 14]: 20
- Plant response rating, Waterhemp [9, 15]: 20
- Plant response rating, Waterhemp [9, 16]: 25
- Waterhemp plant response rating [9, 17]: 30
- Waterhemp plant response rating [9, 18]: 35
- Plant response rating, Waterhemp [9, 19]: 65
- Plant response rating (scale of 0 to 100), Waterhemp ([9]; Preemergence, 250 g ai/ha): 55
- Plant response rating, Velvetleaf [10, 13]: 0
- Plant response rating, Velvetleaf [10, 14]: 0
- Plant response rating, Velvetleaf [10, 15]: 0
- Plant response rating, Velvetleaf [10, 16]: 20
- Velvetleaf plant response rating [10, 17]: 0
- Velvetleaf plant response rating [10, 18]: 0
- Plant response rating, Velvetleaf [10, 19]: 0
- Plant response rating (scale of 0 to 100), Velvetleaf ([10]; Preemergence, 250 g ai/ha): 0
- Plant response rating, Sedge, Umbrella [11]: 0
- Plant response rating, Oilseed Rape [12, 13]: 0
- Plant response rating, Oilseed Rape [12, 14]: 0
- Plant response rating, Oilseed Rape [12, 15]: 40
- Plant response rating, Oilseed Rape [12, 16]: 0
- Oilseed Rape plant response rating [12, 17]: 0
- Oilseed Rape plant response rating [12, 18]: 0
- Plant response rating, Oilseed Rape [12, 19]: 0
- Plant response rating (scale of 0 to 100), Oilseed Rape ([12]; Preemergence, 250 g ai/ha): 10
